Here are results for 19 molecules from ChEMBL document CHEMBL2046384, “Discovery of novel benzylidene-1,3-thiazolidine-2,4-diones as potent and selective inhibitors of the PIM-1, PIM-2, and PIM-3 protein kinases” (Bioorg Med Chem Lett, 2012).

One data set can be described thus: in vitro. The note with it: rat, liver microsomes.
Data set [1] can be described thus: Antiproliferative activity against human MOLM16 cells after 72 hrs by Cell Titer-Blue assay. The class given is functional. The following applies: MOLM16, 72 h. (Resazurin is reduced to fluorescent resorufin, in cell work by metabolically active cells.)
In data set [2] the target is Voltage-gated inwardly rectifying potassium channel KCNH2 (Homo sapiens, UniProt Q12809). Briefly: Inhibition of human ERG.
Data set [3] in a line: Equilibrium solubility of the compound in phosphate buffer after 24 hrs at pH 7.4. The class given is physicochemical.
Data set [4] addresses T1, Serine/threonine-protein kinase pim-1 (Homo sapiens, UniProt P11309). The data set is described as follows: Inhibition of human PIM1 using FITC-(AHX)RSRHSSYPAGT-COOH as substrate after 90 mins by mobility shift assay in presence of 50 uM ATP.
Target sequence in this assay (P11309 whole entry): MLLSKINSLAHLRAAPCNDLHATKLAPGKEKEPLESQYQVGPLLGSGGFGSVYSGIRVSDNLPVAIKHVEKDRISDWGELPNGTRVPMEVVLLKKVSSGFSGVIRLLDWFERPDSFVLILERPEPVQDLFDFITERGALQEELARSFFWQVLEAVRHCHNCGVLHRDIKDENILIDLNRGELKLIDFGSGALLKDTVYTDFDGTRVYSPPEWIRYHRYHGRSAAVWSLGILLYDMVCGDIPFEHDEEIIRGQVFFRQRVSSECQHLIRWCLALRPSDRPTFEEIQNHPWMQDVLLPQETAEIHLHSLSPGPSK
The target in data set [5] is T2, Serine/threonine-protein kinase pim-2 (Homo sapiens, UniProt Q9P1W9). Briefly: Inhibition of human PIM2 using FITC-(AHX)RSRHSSYPAGT-COOH as substrate after 90 mins by mobility shift assay in presence of 50 uM ATP.
Target sequence in this assay (Q9P1W9 whole entry): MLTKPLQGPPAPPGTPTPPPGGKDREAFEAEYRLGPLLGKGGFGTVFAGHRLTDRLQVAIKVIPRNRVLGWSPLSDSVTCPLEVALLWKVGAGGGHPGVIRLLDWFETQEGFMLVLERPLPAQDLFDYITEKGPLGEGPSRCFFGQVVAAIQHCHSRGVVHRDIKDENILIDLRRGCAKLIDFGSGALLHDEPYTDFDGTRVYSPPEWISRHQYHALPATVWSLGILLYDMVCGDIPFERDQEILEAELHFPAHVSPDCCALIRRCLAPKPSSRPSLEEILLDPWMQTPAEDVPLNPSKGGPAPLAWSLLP
For data set [6], the target named is T3, Serine/threonine-protein kinase pim-3 (Homo sapiens, UniProt Q86V86). Briefly: Inhibition of human PIM3 using FITC-(AHX)RSRHSSYPAGT-COOH as substrate after 90 mins by mobility shift assay in presence of 50 uM ATP.
Data set [7] has as its target T2, Serine/threonine-protein kinase pim-2. The data set is described as follows: Inhibition of human PIM2 using FITC-(AHX)RSRHSSYPAGT-COOH as substrate after 90 mins by mobility shift assay in presence of 5 mM ATP.
Target sequence in this assay (Q9P1W9 whole entry): as the sequence (Q9P1W9 whole entry) above
The target in data set [8] is T1, Serine/threonine-protein kinase pim-1. The data set is described as follows: Inhibition of human PIM1 using FITC-(AHX)RSRHSSYPAGT-COOH as substrate after 90 mins by mobility shift assay in presence of 5 mM ATP.
Target sequence in this assay (P11309 whole entry): as the sequence (P11309 whole entry) above
The target of data set [9] is T3, Serine/threonine-protein kinase pim-3. The data set is described as follows: Inhibition of human PIM3 using FITC-(AHX)RSRHSSYPAGT-COOH as substrate after 90 mins by mobility shift assay in presence of 5 mM ATP.
A short description of data set [10]: Dissociation constant, pKa of the compound. The format is physicochemical.
Data set [11] deals with T1, Serine/threonine-protein kinase pim-1. The note with it: 1 uM.
Target sequence in this assay (P11309 whole entry, looked up): as the sequence (P11309 whole entry) above
Data set [12] has as its target Phosphatidylinositol 4,5-bisphosphate 3-kinase catalytic subunit gamma isoform (Homo sapiens) (UniProt P48736). The data set is described as follows: Inhibition of PI3Kgamma at 1 uM.
The target of data set [13] is T2, Serine/threonine-protein kinase pim-2. The note with it: 1 uM.
Target sequence in this assay (Q9P1W9 whole entry, looked up): as the sequence (Q9P1W9 whole entry) above
For data set [14], the target named is Cyclin-dependent kinase 2 (Homo sapiens) (UniProt P24941). The data set is described as follows: Inhibition of CDK2 at 1 uM.
Data set [15] has as its target T3, Serine/threonine-protein kinase pim-3. The following applies: 1 uM.

Values after ≈ are worked out from the molar mass of the structure shown. Active and inactive are the calls of the source. The calls are words filed in the database; no cut-off is given here.

Chain of Voltage-gated inwardly rectifying potassium channel KCNH2 (Q12809 whole entry): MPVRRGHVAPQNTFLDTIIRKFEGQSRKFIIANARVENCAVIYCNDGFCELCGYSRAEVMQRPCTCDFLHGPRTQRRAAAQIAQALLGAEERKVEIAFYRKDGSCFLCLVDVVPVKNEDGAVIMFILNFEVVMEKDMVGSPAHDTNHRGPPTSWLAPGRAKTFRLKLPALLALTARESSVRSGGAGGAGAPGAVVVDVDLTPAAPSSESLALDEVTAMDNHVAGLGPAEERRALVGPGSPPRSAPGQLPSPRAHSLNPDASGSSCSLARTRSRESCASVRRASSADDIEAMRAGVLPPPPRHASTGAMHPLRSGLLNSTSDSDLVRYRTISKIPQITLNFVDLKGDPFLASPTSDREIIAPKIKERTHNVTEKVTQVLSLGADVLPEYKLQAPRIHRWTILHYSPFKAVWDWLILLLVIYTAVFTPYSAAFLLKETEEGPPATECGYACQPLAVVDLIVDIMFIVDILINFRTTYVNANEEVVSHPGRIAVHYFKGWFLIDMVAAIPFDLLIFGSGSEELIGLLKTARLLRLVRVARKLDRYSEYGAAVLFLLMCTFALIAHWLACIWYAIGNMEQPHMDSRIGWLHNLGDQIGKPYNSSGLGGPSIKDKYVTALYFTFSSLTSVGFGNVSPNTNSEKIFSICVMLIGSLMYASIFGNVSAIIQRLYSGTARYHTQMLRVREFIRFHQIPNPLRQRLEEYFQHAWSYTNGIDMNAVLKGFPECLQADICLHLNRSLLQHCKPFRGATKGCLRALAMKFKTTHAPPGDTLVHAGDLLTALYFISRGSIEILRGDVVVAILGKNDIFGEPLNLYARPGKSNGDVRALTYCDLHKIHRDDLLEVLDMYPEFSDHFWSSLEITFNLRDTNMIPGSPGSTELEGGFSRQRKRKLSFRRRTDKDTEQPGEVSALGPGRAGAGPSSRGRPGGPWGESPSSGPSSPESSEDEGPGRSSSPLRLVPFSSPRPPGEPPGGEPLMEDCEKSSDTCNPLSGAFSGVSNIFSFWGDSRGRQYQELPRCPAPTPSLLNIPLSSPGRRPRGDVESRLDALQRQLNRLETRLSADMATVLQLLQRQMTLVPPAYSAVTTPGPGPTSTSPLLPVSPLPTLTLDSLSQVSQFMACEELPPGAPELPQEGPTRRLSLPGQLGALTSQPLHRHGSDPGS
Chain of Phosphatidylinositol 4,5-bisphosphate 3-kinase catalytic subunit gamma isoform (Homo sapiens) (P48736 whole entry, looked up, canonical isoform): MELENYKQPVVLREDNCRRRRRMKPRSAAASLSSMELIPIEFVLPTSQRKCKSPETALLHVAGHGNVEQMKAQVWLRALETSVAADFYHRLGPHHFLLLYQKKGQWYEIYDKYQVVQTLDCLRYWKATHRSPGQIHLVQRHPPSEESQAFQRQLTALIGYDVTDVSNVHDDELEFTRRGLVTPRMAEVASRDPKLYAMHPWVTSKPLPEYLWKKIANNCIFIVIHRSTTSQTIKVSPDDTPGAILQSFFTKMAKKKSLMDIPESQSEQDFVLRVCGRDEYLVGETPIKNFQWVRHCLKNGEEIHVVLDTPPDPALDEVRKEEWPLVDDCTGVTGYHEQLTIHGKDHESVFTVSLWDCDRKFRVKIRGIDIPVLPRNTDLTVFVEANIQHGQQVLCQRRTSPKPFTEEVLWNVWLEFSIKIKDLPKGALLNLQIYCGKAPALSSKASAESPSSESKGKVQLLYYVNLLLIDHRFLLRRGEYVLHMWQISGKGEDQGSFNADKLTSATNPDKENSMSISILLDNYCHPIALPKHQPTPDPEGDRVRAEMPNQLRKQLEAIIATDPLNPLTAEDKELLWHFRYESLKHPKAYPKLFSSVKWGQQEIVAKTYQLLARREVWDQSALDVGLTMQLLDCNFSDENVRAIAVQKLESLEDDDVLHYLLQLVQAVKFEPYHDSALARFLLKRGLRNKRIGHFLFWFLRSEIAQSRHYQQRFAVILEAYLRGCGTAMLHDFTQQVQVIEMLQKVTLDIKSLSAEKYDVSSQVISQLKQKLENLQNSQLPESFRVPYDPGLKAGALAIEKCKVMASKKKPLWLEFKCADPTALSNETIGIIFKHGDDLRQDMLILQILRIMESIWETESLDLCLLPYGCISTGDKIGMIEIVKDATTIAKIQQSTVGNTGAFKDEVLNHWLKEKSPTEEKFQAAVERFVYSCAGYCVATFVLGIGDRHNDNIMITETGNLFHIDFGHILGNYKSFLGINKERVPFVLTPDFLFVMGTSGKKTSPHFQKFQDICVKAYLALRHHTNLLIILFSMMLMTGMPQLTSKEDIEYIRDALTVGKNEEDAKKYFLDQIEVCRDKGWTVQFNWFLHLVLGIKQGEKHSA

Molecule `N[C@@H]1CCCN(c2c(/C=C3\SC(=O)NC3=O)cccc2-c2ccccc2)C1` displayed a microsomal CLint at 2 µM in “in vitro” of under 4.8 µL/min/mg. Besides, the 50% growth inhibitory concentration (GI50) in data set [1] stood at 0.02 µM. The IC50 in [2] was over 30 µM. Further, the solubility (thermodynamic) at 24 h in [3] amounted to 263 µM (≈ 99.8 µg/mL).

Take `N[C@H]1CCN(c2cc(Cl)ccc2/C=C2\SC(=O)NC2=O)C1`: the IC50 in [4] stood at 0.012 µM; in data set [5] it was 0.079 µM; in data set [6] it was 0.005 µM.

Consider `CCOc1cccc(/C=C2\SC(=O)NC2=O)c1N1CCC[C@@H](N)C1`, for which the half-inhibitory concentration (IC50) in data set [7] is 0.16 µM; in data set [4], under 0.003 µM; in [8], 0.01 µM; in data set [5] it was under 0.004 µM; in data set [6], under 0.003 µM; in [9], 0.006 µM. Also, in “in vitro”, the microsomal CLint at 2 µM amounted to 12.1 µL/min/mg. In addition, it took 0.08 µM to inhibit growth in [1] by half (GI50). The solubility (thermodynamic) at 24 h in data set [3] was over 1000 µM.

As for `O=C1NC(=O)/C(=C/c2cccc(Cl)c2N2CCNCC2)S1`, the IC50 in data set [4] worked out at 0.018 µM; in data set [5], 0.082 µM; in data set [6], 0.026 µM.

For the molecule `CC(C)Oc1cccc(/C=C2\SC(=O)NC2=O)c1N1CCC[C@@H](N)C1`, the IC50 was 0.05 µM in data set [7]; under 0.003 µM in data set [4]; under 0.004 µM in [8]; under 0.003 µM in data set [5]; under 0.003 µM in data set [6]; under 0.003 µM in [9]. The same molecule yielded a microsomal CLint at 2 µM in “in vitro” of under 4.8 µL/min/mg. In data set [1], this molecule displayed a GI50 of 0.02 µM. This molecule also yielded a thermodynamic solubility at 24 h in data set [3] of 378 µM (≈ 137 µg/mL).

On to `N[C@H]1CCN(c2c(Cl)cccc2/C=C2\SC(=O)NC2=O)C1`, for which the half-maximal inhibitory concentration (IC50) is under 0.006 µM in [4], 0.025 µM in [5] and under 0.005 µM in data set [6].

As to `CC(C)(C)OC(=O)N[C@H]1CCN(c2ccccc2/C=C2\SC(=O)NC2=O)C1`, the concentration for half-maximal inhibition (IC50) in data set [4] is 1.5 µM; in data set [5], 15 µM; in [6], 3.2 µM.

Regarding `O=C1NC(=O)/C(=C/c2ccccc2)S1`, the values for the IC50 in data set [4], in data set [5] and in [6] were 0.89 µM, 4.7 µM and 0.73 µM, respectively. The molecule further displayed a pKa in [10] of 6.14.

Take `CN(C)C1CCN(c2ccccc2/C=C2\SC(=O)NC2=O)C1` (configuration not stated): the half-maximal inhibitory concentration (IC50) in data set [4] turned out to be 0.061 µM; in data set [5], 0.5 µM; in data set [6], 0.11 µM.

Turning to `COc1cccc(/C=C2\SC(=O)NC2=O)c1N1CCC[C@@H](N)C1`, the half-maximal inhibitory concentration (IC50) in data set [7] was 0.32 µM; in data set [4] it was under 0.003 µM; in data set [8] it was 0.02 µM; in data set [5] it was 0.005 µM; in [6], under 0.003 µM; in data set [9], 0.01 µM. The molecule further returned a microsomal CLint at 2 µM in “in vitro” of 3.9 µL/min/mg. In data set [1], this molecule displayed a GI50 of 0.21 µM. Besides, in data set [3], the thermodynamic solubility at 24 h is over 1000 µM.

With `O=C1NC(=O)/C(=C/c2ccccc2N2CCNCC2)S1`, the results for the IC50 in [4], in [5] and in data set [6] were 0.028 µM, 0.18 µM and 0.036 µM, respectively.

For `N[C@@H]1CCCN(c2ccccc2/C=C2\SC(=O)NC2=O)C1`, the IC50 in [7] was 1.2 µM; in data set [4] it was 0.009 µM; in [8], 0.1 µM; in data set [5], 0.014 µM; in data set [2], over 30 µM; in [6], 0.009 µM. In addition, the half-maximal inhibitory concentration (IC50) in [9] turned out to be 0.24 µM. Further, in [1], the GI50 was determined as 0.49 µM. This molecule registered a thermodynamic solubility at 24 h in [3] of 782 µM (≈ 237 µg/mL).

On to `N[C@H]1CCN(c2ccccc2/C=C2\SC(=O)NC2=O)C1`, for which the IC50 in [4] was 0.036 µM; in data set [5], 0.25 µM; in data set [6], 0.042 µM.

With `CCOc1cc(/C=C2\SC(=O)NC2=O)ccc1O`, the 50% inhibitory concentration (IC50) in data set [4] worked out at 0.16 µM; in data set [5], 0.16 µM; in [6] it was 0.39 µM.

On to `N[C@@H]1CCCN(c2c(Br)cccc2/C=C2\SC(=O)NC2=O)C1`, for which the inhibition in data set [11], in [13] and in data set [15] was over 50% each time. In addition, the 50% inhibitory concentration (IC50) in data set [7] was 0.15 µM; in data set [4], under 0.003 µM; in [8], 0.01 µM; in data set [5] it was under 0.003 µM; in data set [2], over 30 µM; in [6], under 0.003 µM. Further, the half-inhibitory concentration (IC50) in data set [9] was determined as 0.01 µM. Further, in the data set “in vitro”, the intrinsic clearance (microsomal CLint) at 2 µM is under 4.8 µL/min/mg. For the same molecule, the inhibition result in data set [12] and in [14] was “inactive” in each case. The molecule also returned a GI50 in [1] of 0.1 µM. Besides, in data set [3], the solubility (thermodynamic) at 24 h was over 720 µM.

Consider `CC(C)COc1cccc(/C=C2\SC(=O)NC2=O)c1N1CCC[C@@H](N)C1`, for which the IC50 in data set [7] is 0.14 µM; in data set [4], under 0.003 µM; in data set [8] it was 0.008 µM; in data set [5], under 0.004 µM; in [2], 23 µM; in data set [6], under 0.003 µM. Besides, the IC50 in data set [9] is under 0.003 µM. This molecule gave a microsomal CLint at 2 µM in “in vitro” of 6.9 µL/min/mg. Moreover, growth in [1] was halved (GI50) at 0.08 µM. In data set [3], the thermodynamic solubility at 24 h was 337 µM (≈ 127 µg/mL).

In the case of `N[C@@H]1CCCN(c2c(/C=C3\SC(=O)NC3=O)cccc2-c2ccncc2)C1`, the IC50 in data set [7] is 0.69 µM; in [4], under 0.003 µM; in data set [8] it was 0.004 µM; in data set [5], 0.019 µM; in [6], 0.004 µM; in data set [9], 0.038 µM. In data set [1], this molecule displayed a 50% growth inhibitory concentration (GI50) of 2.28 µM. Besides, in [3], the solubility (thermodynamic) at 24 h was found to be 142 µM (≈ 54 µg/mL).

Regarding `COc1ccc(/C=C2\SC(=O)NC2=O)cc1OC`, the IC50 was 0.95 µM in [4], 2.5 µM in data set [5] and 0.28 µM in data set [6].

As for `N[C@@H]1CCCN(c2c(Cl)cccc2/C=C2\SC(=O)NC2=O)C1`, the IC50 in data set [7] was 0.31 µM; in [4], under 0.003 µM; in data set [8], 0.02 µM; in data set [5] it was 0.005 µM; in [6] it was under 0.003 µM; in data set [9], 0.02 µM. This molecule also showed a microsomal CLint at 2 µM in the data set “in vitro” of 8.8 µL/min/mg. Also, the GI50 in data set [1] is 0.19 µM.

For orientation: microsomal CLint means the capacity of the preparation to metabolise the compound, expressed as a volume cleared per time. The term GI50 denotes the concentration giving 50% growth inhibition. Read a high GI50 as lower sensitivity of the cells. In general, IC50 refers to the concentration needed to halve the response being measured. The term thermodynamic solubility denotes solubility found after equilibrating the solid with the medium. One may read the pKa as the negative logarithm of the acid dissociation constant. A high value points to a weaker acid or stronger base. In general, inhibition refers to the share of the control response that was lost under treatment.
